The target in test [1] is ITK (Homo sapiens (Human), UniProt Q08881). Description: ITK inhibitor binding potency (LanthaScreen competitive binding assay). The conditions noted are these: TR-FRET tracer-236 displacement, 10 nM ITK; pre-incubation condition not given; read-out: ITK Inhibition IC50. The source says: The ability of candidate compounds to interact with ITK is quantitated by a competitive binding assay using the LanthaScreen technology developed by Life Technologies. This assay is based on the binding of a proprietary, Alexa Fluor® 647-labeled, ATP-competitive kinase inhibitor (kinase tracer-236) to the ITK expression construct in the presence of a Europium-conjugated antibody, resulting in a FRET (fluorescence resonance energy transfer) signal. Displacement of the kinase tracer by compound results in a lower emission ratio upon excitation of the Europium chelate. Candidate compounds are designed as potential irreversible inhibitors of ITK, capable of ligating to an active site cysteine residue resulting in time dependent covalent binding. The time dependent nature of irreversible inhibition is investigated by performing the binding assay with and without a pre-incubation of compound and ITK. […] The inhibitory potency of candidate compounds is measured in 20 mM HEPES pH 7.5, 10 mM MgCl2, 0.01% BSA, 0.0005% Tween-20, and 2% DMSO in the presence of 10 nM ITK, 2 nM Eu-anti-GST antibody, and 50 nM kinase tracer-236 using a 384-well plate format. Background signal is defined in the absence of ITK and uninhibited signal is defined in the presence of vehicle (2% DMSO) alone. Compounds were evaluated in an 11 point dose-response ranging from 20 uM to 0.34 nM. The binding assays are performed under two preincubation conditions to evaluate time dependence of inhibition. For the pre-incubation assay, ITK and Eu-anti-GST antibody are pre-incubated with compound or vehicle for two hours prior to the addition of kinase tracer. The non-preincubated assay is run under conditions where ITK and Eu-anti-GST antibody are added to a mixture of compound and kinase tracer. IC50 values of compounds are determined using a 4 parameter logistical fit of emission ratio as a function of the concentration of compound.
ITK, sequence (Q08881 whole entry): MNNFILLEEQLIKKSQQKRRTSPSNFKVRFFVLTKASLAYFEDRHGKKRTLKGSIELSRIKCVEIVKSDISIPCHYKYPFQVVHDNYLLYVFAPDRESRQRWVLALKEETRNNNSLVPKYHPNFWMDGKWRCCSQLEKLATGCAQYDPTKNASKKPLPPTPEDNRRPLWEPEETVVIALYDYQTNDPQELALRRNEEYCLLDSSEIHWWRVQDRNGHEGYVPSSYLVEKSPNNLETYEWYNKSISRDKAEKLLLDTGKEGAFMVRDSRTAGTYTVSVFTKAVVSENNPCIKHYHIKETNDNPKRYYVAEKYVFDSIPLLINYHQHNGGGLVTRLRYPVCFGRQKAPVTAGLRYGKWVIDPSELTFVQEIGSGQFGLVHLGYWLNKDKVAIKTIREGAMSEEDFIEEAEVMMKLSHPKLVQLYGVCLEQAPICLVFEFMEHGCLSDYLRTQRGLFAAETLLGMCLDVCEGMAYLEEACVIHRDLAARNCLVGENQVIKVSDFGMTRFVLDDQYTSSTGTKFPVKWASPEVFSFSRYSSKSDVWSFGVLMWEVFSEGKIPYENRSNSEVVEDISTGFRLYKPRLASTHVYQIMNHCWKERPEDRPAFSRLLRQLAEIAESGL
Background: Time-resolved FRET reads energy transfer from a long-lived donor to a nearby acceptor.

Test [2] relates to phospho-PLCγ1 in Jurkat cells. The test is described as follows: ITK target modulation PLC-γ assay (phospho-PLCγ1, αCD3-stimulated Jurkat cells). It is filed as cell-based, human. The conditions noted are these: Homo sapiens, 1 hour compound incubation, αCD3 Dynabeads stimulation 8 minutes, MSD phospho-PLCγ1, read-out: PLC-γ Inhibition IC50. As to the method: Jurkat cells, an immortalized human T-lymphocyte cell line, were maintained in RPMI media, 10% FBS, 1% pen/strep/glutamine (growth media). Cells were plated in growth media plus 50 μM β-mercaptoethanol at 400,000 cells per well of a 96 well plate.
Compounds were serially diluted into DMSO, and then into media to concentrations 10× that of the final assay concentration. Compounds were then added to the cells with the final assay DMSO concentration being 0.1%. Cells were incubated for 1 hour at 37° C.
Following compound incubation, αCD3 Dynabeads were added at 1 bead/cell to each assay well and incubated at 37° C. for 7 minutes. Unstimulated control wells received media only. The plate was then placed on a 96-well magnetic plate for an additional 60 seconds (total assay stimulation time equals 8 minutes). The plate was then dumped and gently patted dry on a paper towel. 50 μl of complete Meso Scale Discovery (MSD) Lysis buffer was then added to each well. Samples were assayed for phospho-PLCγ1 using Meso Scale Discovery technology.
The assay stimulation time has been optimized for detection of Itk kinase-mediated phosphorylation of PLCγ1. The timing and detection reagents for this assay could be adjusted to capture phosphorylation events upstream (e.g., phospho-ZAP70) or downstream of the Itk/PLCγ1 node, provided the appropriate phospho-specific antibodies are available for building of an MSD assay.

Broadly, the IC50 is the concentration at which inhibition is half-maximal.

`C=CC(=O)NC1CN(c2cnc3[nH]cc(-c4ccccc4)c3c2)C1` [Example 1, N-(1-(3-Phenyl-1H-pyrrolo[2,3-b]pyridin-5-yl)azetidin-3-yl)acrylamide]: the IC50 in test [1] was at most 1000 nM; in test [2], above 5000 nM.
The corresponding values for `C=CC(=O)NC1CN(c2cnc3[nH]cc(-c4ccnc(NC)c4)c3c2)C1` [Example 36, N-(1-(3-(2-(methylamino)pyridin-4-yl)-1H-pyrrolo[2,3-b]pyridin-5-yl)azetidin-3-yl)acrylamide] are at most 1000 nM and above 5000 nM.
The corresponding values for `C=CC(=O)N[C@H]1CCCN(c2cnc3[nH]cc(-c4ccncc4)c3c2)C1` [Example 15, (S)-N-(1-(3-(pyridin-4-yl)-1H-pyrrolo[2,3-b]pyridin-5-yl)piperidin-3-yl)acrylamide] are at most 1000 nM and above 5000 nM.
The corresponding values for `CN(C)C/C=C/C(=O)Nc1cccc(-c2cnc3[nH]cc(-c4ccc(=O)n(CC5CC5)c4)c3c2)c1` [Example 90, (E)-N-(3-(3-(1-(cyclopropyl-methyl)-6-oxo-1,6-dihydropyridin-3-yl)-1H-pyrrolo[2,3-b]pyridin-5-yl)phenyl)-4-(dimethylamino) but-2-enamide] are at most 1000 nM and above 5000 nM.
As for `COc1cc(-c2c[nH]c3ncc(-c4cccc(/C=C(\C#N)C(N)=O)c4)cc23)ccn1` [Example 9, (E)-2-Cyano-3-(3-(3-(2-methoxypyridin-4-yl)-1H-pyrrolo[2,3-b]pyridin-5-yl)phenyl)acrylamide], the IC50 in test [1] was at most 1000 nM; in test [2], above 5000 nM.
With `C=CC(=O)Nc1cncc(-c2cnc3[nH]cc(-c4ccc(=O)n(C)c4)c3c2)c1` [Example 17, N-(5-(3-(1-methyl-6-oxo-1,6-dihydropyridin-3-yl)-1H-pyrrolo[2,3-b]pyridin-5-yl)pyridin-3-yl)acrylamide], the IC50 in test [1] was at most 1000 nM; in test [2], above 5000 nM.
The corresponding values for `C=CC(=O)Nc1cccc(-c2cnc3[nH]cc(-c4ccc(C(=O)Nc5ccc(C(C)C)cc5)cc4)c3c2)c1` [Example 74, 4-(5-(3-acrylamidophen-yl)-1H-pyrrolo[2,3-b]pyridin-3-yl)-N-(4-isopropylphenyl) benzamide] are at most 1000 nM and below 1000 nM.
With `COc1cc(-c2c[nH]c3ncc(-c4cccc(NC(=O)/C=C/CN5CCOCC5)c4)cc23)ccn1` [Example 38, (E)-N-(3-(3-(2-methoxypyridin-4-yl)-1H-pyrrolo[2,3-b]pyridin-5-yl)phenyl)-4-morpholinobut-2-enamide], the values for the IC50 in test [1] and in test [2] were at most 1000 nM and above 5000 nM, respectively.
The corresponding values for `CN(C)C/C=C/C(=O)Nc1cccc(-c2cnc3[nH]cc(-c4cccnc4)c3c2)c1` [Example 84, (E)-4-(dimethylamino)-N-(3-(3-(pyridin-3-yl)-1H-pyrrolo[2,3-b]pyridin-5-yl)phenyl)but-2-enamide] are at most 1000 nM and 1000 to 5000 nM.
The corresponding values for `C=CC(=O)NC1CN(c2cnc3[nH]cc(-c4ccncc4)c3c2)C1` [Example 10, N-(1-(3-(Pyridin-4-yl)-1H-pyrrolo[2,3-b]pyridin-5-yl)azetidin-3-yl)acrylamide] are at most 1000 nM and above 5000 nM.
Regarding `C=CC(=O)N[C@H]1CCN(c2cnc3[nH]cc(-c4ccncc4)c3c2)C1` [Example 14, (S)-N-(1-(3-(pyridin-4-yl)-1H-pyrrolo[2,3-b]pyridin-5-yl)pyrrolidin-3-yl)acrylamide], the IC50 in test [1] was at most 1000 nM; in test [2], above 5000 nM.
Consider `C=CC(=O)Nc1cccc(-c2cnc3[nH]cc(-c4ccc(C(=O)Nc5ccc(C)cc5C)cc4)c3c2)c1` [Example 67, 4-(5-(3-acrylamidophen-yl)-1H-pyrrolo[2,3-b]pyridin-3-yl)-N-(2,4-dimethylphenyl) benzamide], for which the IC50 was above 1000 nM in test [1] and below 1000 nM in test [2].
`COc1cc(-c2c[nH]c3ncc(-c4cccc(NC(=O)/C(C#N)=C/C(C)C)c4)cc23)ccn1` [Example 87, (E)-2-cyano-N-(3-(3-(2-methoxypyridin-4-yl)-1H-pyrrolo[2,3-b]pyridin-5-yl)phenyl)-4-methylpent-2-enamide]: the IC50 in test [1] is at most 1000 nM; in test [2] it was above 5000 nM.
On to `C=C(C)C(=O)Nc1cccc(-c2cnc3[nH]cc(-c4ccnc(OC)c4)c3c2)c1` [Example 81, N-(3-(3-(2-methoxypyridin-4-yl)-1H-pyrrolo[2,3-b]pyridin-5-yl)phenyl)meth-acrylamide], for which the IC50 in test [1] is above 1000 nM; in test [2] it was above 5000 nM.
The corresponding values for `C=C(C)C(=O)Nc1cccc(-c2cnc3[nH]cc(-c4cccnc4)c3c2)c1` [Example 85, N-(3-(3-(pyridin-3-yl)-1H-pyrrolo[2,3-b]pyridin-5-yl)phenyl)meth-acrylamide] are at most 1000 nM and above 5000 nM.
For the compound `COc1cc(NC(=O)/C=C/CN(C)C)cc(-c2cnc3[nH]cc(-c4ccnc(OC)c4)c3c2)c1` [Example 76, (E)-4-(dimethylamino)-N-(3-methoxy-5-(3-(2-methoxypyridin-4-yl)-1H-pyrrolo[2,3-b]pyridin-5-yl)phenyl)but-2-enamide], the IC50 in test [1] is at most 1000 nM; in test [2], below 1000 nM.
With `O=C(/C=C/CN1CCOCC1)Nc1cccc(-c2cnc3[nH]cc(-c4ccncc4)c3c2)c1` [Example 23, (E)-4-morpholino-N-(3-(3-(pyridin-4-yl)-1H-pyrrolo[2,3-b]pyridin-5-yl)phenyl)but-2-enamide], the figures for the IC50 in test [1] and in test [2] were at most 1000 nM and 1000 to 5000 nM, respectively.
The corresponding values for `C=CC(=O)Nc1cccc(-c2cnc3[nH]cc(-c4cc(OC)ncn4)c3c2)c1` [Example 39, N-(3-(3-(6-methoxypyrimi-din-4-yl)-1H-pyrrolo[2,3-b]pyridin-5-yl)phenyl)acryl-amide] are at most 1000 nM and 1000 to 5000 nM.
The corresponding values for `CN(C)C/C=C/C(=O)Nc1cccc(-c2cnc3[nH]cc(-c4ccnc5[nH]ccc45)c3c2)c1` [Example 89, (E)-N-(3-(1H,1′H-[3,4′-bipyrrolo[2,3-b]pyridin]-5-yl)phenyl)-4-(dimethylamino) but-2-enamide] are at most 1000 nM and below 1000 nM.
The corresponding values for `CN(C)C/C=C/C(=O)Nc1cccc(-c2cnc3[nH]cc(-c4cccc(C#N)c4)c3c2)c1` [Example 78, (E)-N-(3-(3-(3-cyanophenyl)-1H-pyrrolo[2,3-b]pyridin-5-yl)phenyl)-4-(dimethylamino) but-2-enamide] are at most 1000 nM and above 5000 nM.
For `CN(C)C/C=C/C(=O)Nc1cccc(-c2cnc3[nH]cc(-c4ccc(=O)n(C)c4)c3c2)c1` [Example 34, (E)-4-(dimethylamino)-N-(3-(3-(1-methyl-6-oxo-1,6-dihydropyridin-3-yl)-1H-pyrrolo[2,3-b]pyridin-5-yl)phenyl)but-2-enamide], the IC50 in test [1] was above 1000 nM; in test [2] it was above 5000 nM.
With `C=CC(=O)Nc1cccc(-c2cnc3[nH]cc(-c4c[nH]c(=O)c5ccccc45)c3c2)c1` [Example 69, N-(3-(3-(1-oxo-1,2-dihydroisoquino-lin-4-yl)-1H-pyrrolo[2,3-b]pyridin-5-yl)phenyl)acryl-amide], the values for the IC50 in test [1] and in test [2] were at most 1000 nM and above 5000 nM, respectively.
The corresponding values for `C=CC(=O)N(C)c1cccc(-c2cnc3[nH]cc(-c4ccnc(OC)c4)c3c2)c1` [Example 21, N-(3-(3-(2-methoxypyridin-4-yl)-1H-pyrrolo[2,3-b]pyridin-5-yl)phenyl)-N-methylacrylamide] are at most 1000 nM and 1000 to 5000 nM.
The corresponding values for `C=CC(=O)Nc1cccc(-c2cnc3[nH]cc(-c4ccnc(OC)c4)c3c2)c1` [Example 6, N-(3-(3-(2-Methoxypyridin-4-yl)-1H-pyrrolo[2,3-b]pyridin-5-yl)phenyl)acrylamide] are at most 1000 nM and below 1000 nM.

Values taken from US9695200B2, “Heterocyclic ITK inhibitors for treating inflammation and cancer” (Confluence Life Sciences, Inc., priority 2015, dated 2017).
